Reference: patent US20020142016A1, “Stable skin care product containing a retinoid and a retinoid booster system in a dual compartment package” (priority 2000, published 2002)

Columns and labels:
[1] = Retinol stability in the presence of boosters (OD 360 nm); assay type: physicochemical; details: booster approximately 0.1%, retinol in approx. 50% aqueous ethanol, 60 hours at room temperature in the dark
Method: Retinol (50% in tween 80) was dissolved in approximately 50% aqueous ethanol to provide a solution giving an OD at 360nm of approximately 0.6 when measured in a 200 μl volume in a 96 well plate using a standard 96 well spectrophotometer.
Booster molecules were added at approximately 0.1% concentration and the OD 360 measured as above immediately and after 60 hours at room temperature in the dark. A correction was applied to the OD after 60 hours (divide by 0.85) to account for increased concentration of the retinol due to evaporation of solvent from the plate.

[2] = molecular target: T1, LRAT (Bos taurus, UniProt Q9BGL2); experiment: Assay for LRAT activity in RPE microsomes; assay type: biochemical, bovine; details: 100 μm compound
T1 construct: followed by approximately 15 pg of RPE microsomal protein; tissue W. L. Lawson Co., Lincoln, Nebr; host or cells: bovine retinal pigment epithelium microsomes
T1 sequence (Q9BGL2 1-230): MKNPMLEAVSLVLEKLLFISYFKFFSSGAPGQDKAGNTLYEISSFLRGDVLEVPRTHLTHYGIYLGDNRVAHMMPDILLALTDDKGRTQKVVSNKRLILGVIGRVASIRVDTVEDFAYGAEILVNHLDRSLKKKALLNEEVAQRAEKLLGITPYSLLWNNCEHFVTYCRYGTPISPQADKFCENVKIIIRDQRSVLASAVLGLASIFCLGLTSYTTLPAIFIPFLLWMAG

[3] = tested on: TGase I; experiment: Transglutaminase (TGase I ELISA) assay in cultured keratinocytes with retinol; assay type: cell-based; details: for % Inhibition Overall TG (-ROH/RE): added effect of booster+retinol induced TGase inhibition over retinol alone; for IC50: Keratinocyte, concentration of booster which, with constant retinol 10^-7 M, inhibits TGase by 50%, read-out: Overall TG (IC 50)
[4] = tested on: retinoic acid oxidation (cytochrome P450 systems); experiment: Assay for NADPH dependent retinoic acid oxidation in rat liver microsomes; assay type: biochemical; details: Sprague Dawley, pH 7.4, probe retinoic acid; for inhibition at 60 min, 100 µM: 10 μM

Compound | FOLD INCREASE IN RATE OF RETINOL LOSS [1] | IC50 [3] [µM] | also measured
Oc1cccc2cccnc12 [8 OH QUINOLINE] | 1.5 |  | 
CCN(CC)CC(=O)Nc1c(C)cccc1C [Lidocaine, reference compound] |  |  | inhibition at 100 µM [2]: 0%
CCCCC/C=C\C/C=C\CCCCCCCC(=O)N(CCO)CCO [Linoleamide-DEA (or Linoleoyl Diethanolamide)] | 3.0 |  | % Inhibition Overall TG (-ROH/RE) [3]: 59%
O=c1c(O)c(-c2ccc(O)c(O)c2)oc2cc(O)cc(O)c12 [Quercetin] |  | 62.9 | inhibition at 60 min, 10 µM [4]: 40%; inhibition at 60 min, 100 µM [4]: 74%
Clc1ccccc1C(c1ccccc1)(c1ccccc1)n1ccnc1 [Clotrimazole] |  |  | inhibition at 60 min, 10 µM [4]: 76%
Clc1ccc(COC(Cn2ccnc2)c2ccc(Cl)cc2Cl)c(Cl)c1 (stereo not shown) [Miconazole] |  |  | inhibition at 60 min, 10 µM [4]: 74%; inhibition at 60 min, 100 µM [4]: 86%
CC(=O)N1CCN(c2ccc(OCC3COC(Cn4ccnc4)(c4ccc(Cl)cc4Cl)O3)cc2)CC1 (stereo not shown) [Ketoconazole] |  | 0.185 | inhibition at 60 min, 10 µM [4]: 84%; inhibition at 60 min, 100 µM [4]: 84%
CCCCC/C=C\C/C=C\CCCCCCCC(=O)O [Linoleic Acid] | 3.4 | 163 | 
CC(C)=CCC/C(C)=C/CO [Geraniol] | 1.3 | 7830 | 
C[C@H]1[C@H](C)CC[C@]2(C(=O)O)CC[C@]3(C)C(=CC[C@@H]4[C@@]5(C)CC[C@H](O)C(C)(C)[C@@H]5CC[C@]43C)[C@H]12 [Urosolic Acid] |  | 1.46 | 
CC(C)CCCCCCCCCCCCCCC(=O)O [Isostearic Acid] |  | 68.8 | 
CCCCCCCCCCCC(=O)N(C)CC(=O)O [Lauroyl Sarcosine] | 2.6 |  | 
CC(C)=CCC/C(C)=C/CC/C(C)=C/CC/C(C)=C/CO [Geranyl Geraniol] |  |  | inhibition at 100 µM [2]: 77%
CC1(C)[C@@H](OC(=O)CCC(=O)O)CC[C@]2(C)[C@H]3C(=O)C=C4[C@@H]5C[C@@](C)(C(=O)O)CC[C@]5(C)CC[C@@]4(C)[C@]3(C)CC[C@@H]12 [Carbenoxolone, reference compound] |  | 0.361 | 
COc1cc(NS(C)(=O)=O)ccc1Nc1c2ccccc2nc2ccccc12 [Amsacrine, reference compound] |  | 6.26 | 
CC(C)=CCCC(C)=CC=O [Citral] | 3.1 |  | 
Clc1ccc(COC(Cn2ccnc2)c2ccc(Cl)cc2Cl)cc1 (stereo not shown) [Econazole] |  |  | inhibition at 60 min, 10 µM [4]: 88%; inhibition at 60 min, 100 µM [4]: 100%
CC(C)(C(=O)c1cccnc1)c1cccnc1 [Metyrapone (2-Methyl-1,2-di-3-Pyridyl-1-Propane] |  |  | inhibition at 60 min, 100 µM [4]: 47%
CC1(C)[C@@H](O)CC[C@]2(C)[C@H]3C(=O)C=C4[C@@H]5C[C@@](C)(C(=O)O)CC[C@]5(C)CC[C@@]4(C)[C@]3(C)CC[C@@H]12 [Glycyrretinic Acid] | 1.6 |  | 

Compound | FOLD INCREASE IN RATE OF RETINOL LOSS [1] | IC50 [3] [µM] | also measured
CC/C=C\C/C=C\C/C=C\CCCCCCCC(=O)O [Linolenic Acid] |  | 134 | 
CC(/C=C/C=C(\C)C(=O)O)=C\C=C\C=C(C)\C=C\C=C(/C)C(=O)O [Crocetin] |  | 37.5 | inhibition at 100 µM [2]: 15%
CN1CCN(C)C1=O [Dimethyl Imidazolidinone] | 1.4 |  | % Inhibition Overall TG (-ROH/RE) [3]: 22%
CC(C)(C)C(=O)C(Oc1ccc(Cl)cc1)n1ccnc1 (stereo not shown) [Climbazole] |  | 4.47 | inhibition at 60 min, 10 µM [4]: 80%; inhibition at 60 min, 100 µM [4]: 92%
c1ccc(-c2ccc(C(c3ccccc3)n3ccnc3)cc2)cc1 (stereo not shown) [Bifonazole] |  |  | inhibition at 60 min, 10 µM [4]: 89%; inhibition at 60 min, 100 µM [4]: 100%
DAMASCONE | 3.7 |  | 
O=C(O)CCCCCCCCCCCCCCC(=O)O [Hexadecanedioic Acid] |  | 130 | 
CCCCCCCCCCCCCC(=O)O [Myristic Acid] |  | 17.2 | 
CC(=O)c1cc2c(cc1C)C(C)(C)C(C)CC2(C)C (stereo not shown) [Tonalid] |  |  | inhibition at 100 µM [2]: 33%
CCCCCCCCCCCCCC(=O)N(C)CC(=O)O [Myristoyl Sarcosine] |  |  | inhibition at 100 µM [2]: 11%
COc1cc(C=O)ccc1O [Vanillin] |  | 9700 | 
CC(C)=CCCC(C)=CCCC(C)=CCO [Farnesol] |  | 93.5 | inhibition at 100 µM [2]: 53%
COCAMIDE DEA | 1.9 |  | 
CCCCCCCC/C=C/CCCCCCCC(=O)O [Elaidic Acid] |  | 65 | 
CC(=O)/C=C/C1C(C)=CCCC1(C)C (stereo not drawn) [Alpha-Ionone] | 1.3 |  | 
CCCCC/C=C\C/C=C\CCCCCCCC(=O)NCCCN(C)C [Linoleamidopropyl Dimethylamine] |  |  | inhibition at 100 µM [2]: 75%
CCCCC/C=C/C/C=C/CCCCCCCC(=O)NC(C)c1ccccc1 (stereo not shown) [Melinamide, reference compound] |  |  | inhibition at 100 µM [2]: 43%
O=c1ccc2ccccc2o1 [COUMARIN] | 1.4 |  | 
